# Assay results as given in US12343347B2 (Biohaven Pharmaceutical Holding Company Ltd., priority 2012, dated 2025).
# Key:
# Format in all cases: in vitro ADME
# [1] = Stability in Simulated Gastric Fluid (SGF); conditions: SGF:acetonitrile 9:1, 0.01 mg/mL, 37° C.
# Method: (§1) Stability in Simulated Gastric Fluid (SGF) and Simulated Intestinal Fluid (SIF). Procedure from Baudy et. al. (J. Med. Chem. 2009, 52, 771-778) used. The physiological stability of pro-drugs was determined by examining the stability of the compound in SGF, and SIF at 37° C. The compounds were prepared in a 9:1 mixture of the appropriate test component (SGF, SIF) and acetonitrile to a final concentration of 0.01 mg/mL. The samples were thoroughly mixed and maintained at 37° C. Each sample was injected consecutively onto an Agilent 1100 system (Luna C18, 3 μm, 50 mm×3 mm; 1 mL/min; mobile phase of 0.1% trifluoroacetic acid in water/0.1% trifluoroacetic acid in acetonitrile) after a 3 h period. The percent remaining of pro-drug was calculated by comparing the area of pro-drug compound versus riluzole generated. The identities of the parent compounds and conversion products were confirmed by LC/MS.
# [2] = Stability in Simulated Intestinal Fluid (SIF); conditions: SIF:acetonitrile 9:1, 0.01 mg/mL, 37° C.
# Method: as §1
# [3] = Metabolic stability in pooled mouse liver microsomes; conditions: mouse liver microsomes 0.5 mg/mL, 1 uM, NADPH, 37° C.
# Method: (§2) Metabolic Stability: In vitro metabolic stability was determined in pooled mouse or human liver microsomes (BD Gentest) at a protein concentration of 0.5 mg/mL in reaction buffer (100 mM KH2PO4, pH 7.4 and 12 mM MgCl2). Each drug candidate was added to a final concentration of 1 uM. This mixture was pre-warmed to 37° C. for 10 minutes prior to starting the reaction with the addition of β-Nicotinamide adenine dinucleotide 2′-phosphate reduced (NADPH) to a final concentration of 1 mM. A parallel incubation lacking NADPH served as the control. After incubation for 30 min at 37° C., the reactions were quenched by the addition of acetonitrile containing 0.1% formic acid and internal standard, vortex mixed for 2 minutes and centrifuged at 4000 rpm for 10 minutes to pellet the precipitated protein. The resulting supernatant containing the drug candidate and its potential metabolites was diluted 5-fold with water containing 0.1% formic acid and submitted to LC-MS/MS analysis. […]
# (§3) LC-MS/MS Analysis: An aliquot from each incubation was analyzed by LC-MS/MS with SRM detection in the positive ionization mode using an ABSciex API 5500 QTrap Mass Spectrometer interfaced via the ABSciex Turbo V IonSpray source (ESI) to an Eksigent ExpressHT LC system. […] A fast gradient, from 15 to 85% organic in 2.5 minutes, with run time of 5.0 minutes, and flow rate of 50 uL/min was utilized. Peak areas were integrated using MultiQuant v2.0 software from ABSciex.
# [4] = Plasma stability in fresh mouse plasma; conditions: 1 uM, 37° C.
# Method: (§4) Plasma Stability: Assessment of plasma stability was carried out by individual incubations of drug candidates in fresh mouse or human control plasma at a concentration of 1 uM for 1 hour at 37° C. After which, the samples were de-proteinized by addition of 2 volumes of acetonitrile containing 0.1% formic acid and internal standard, vortex mixed for 2 minutes and centrifuged at 4000 rpm for 10 minutes to pellet precipitated protein. The resulting supernatant containing the drug candidates was diluted 5-fold with water containing 0.1% formic acid and submitted to LC-MS/MS analysis. All determinations were done in triplicate. […]
# as §3
# [5] = Metabolic stability in pooled human liver microsomes; conditions: human liver microsomes 0.5 mg/mL, 1 uM, NADPH, 37° C.
# Method: as §2, §3
# [6] = Plasma stability in fresh human plasma; conditions: 1 uM, 37° C.
# Method: as §4, §3
SMILES,"SGF (3 hours), percent of pro-drug metabolized to riluzole [1] [%]","SIF (3 hours), percent of pro-drug metabolized to riluzole [2] [%]","Metabolic Stability mouse (30 minutes), percent of pro-drug metabolized to riluzole [3] [%]","Plasma Stability mouse (1 hour), percent of pro-drug metabolized to riluzole [4] [%]","Metabolic Stability human (30 minutes), percent of pro-drug metabolized to riluzole [5] [%]","Plasma Stability Human (1 hour), percent of pro-drug metabolized to riluzole [6] [%]"
"N[C@@H](COCc1ccccc1)C(=O)Nc1nc2ccc(OC(F)(F)F)cc2s1 [Cpd 10, (S)-2-Amino-3-benzyloxy-N-(6-trifluoromethoxy-benzothiazol-2-yl)-propionamide]",0,0,0,52,15,9
"CC(C)[C@H](N)C(=O)Nc1nc2ccc(OC(F)(F)F)cc2s1 [Cpd 11, (S)-2-Amino-3-methyl-N-(6-trifluoromethoxy-benzothiazol-2-yl)-butyramide]",0,40,40,45,6,11
"COC(=O)Nc1nc2ccc(OC(F)(F)F)cc2s1 [Cpd 12, (6-Trifluoromethoxy-benzothiazol-2-yl)-carbamic acid methyl ester]",0,0,10,0,0,15
"CCOC(=O)Nc1nc2ccc(OC(F)(F)F)cc2s1 [Cpd 13, (6-Trifluoromethoxy-benzothiazol-2-yl)-carbamic acid ethyl ester]",0,0,8,0,7,0
"CCCOC(=O)Nc1nc2ccc(OC(F)(F)F)cc2s1 [Cpd 14, (6-Trifluoromethoxy-benzothiazol-2-yl)-carbamic acid propyl ester]",0,0,15,0,34,0
"CCCCOC(=O)Nc1nc2ccc(OC(F)(F)F)cc2s1 [Cpd 15, (6-Trifluoromethoxy-benzothiazol-2-yl)-carbamic acid butyl ester]",0,0,53,9,13,0
"CC(C)COC(=O)Nc1nc2ccc(OC(F)(F)F)cc2s1 [Cpd 16, (6-Trifluoromethoxy-benzothiazol-2-yl)-carbamic acid isobutyl ester]",5,0,23,0,14,0
"CN(C)CCOC(=O)Nc1nc2ccc(OC(F)(F)F)cc2s1 [Cpd 18, (6-Trifluoromethoxy-benzothiazol-2-yl)-carbamic acid 2-dimethylamino-ethyl ester]",0,0,13,3,10,0
"CN(C)CCCOC(=O)Nc1nc2ccc(OC(F)(F)F)cc2s1 [Cpd 19, (6-Trifluoromethoxy-benzothiazol-2-yl)-carbamic acid 3-dimethylamino-propyl ester]",0,0,71,0,0,0

# Other lines, results leading:
"SGF (3 hours), percent of pro-drug metabolized to riluzole [1] [%]","SIF (3 hours), percent of pro-drug metabolized to riluzole [2] [%]","Metabolic Stability mouse (30 minutes), percent of pro-drug metabolized to riluzole [3] [%]","Plasma Stability mouse (1 hour), percent of pro-drug metabolized to riluzole [4] [%]","Metabolic Stability human (30 minutes), percent of pro-drug metabolized to riluzole [5] [%]","Plasma Stability Human (1 hour), percent of pro-drug metabolized to riluzole [6] [%]",SMILES
0,0,70,0,0,16,"O=C(O)CCC(=O)Nc1nc2ccc(OC(F)(F)F)cc2s1 [Cpd 20, N-(6-Trifluoromethoxy-benzothiazol-2-yl)-succinamic acid]"
3,0,77,99,34,25,"COC(=O)CCC(=O)Nc1nc2ccc(OC(F)(F)F)cc2s1 [Cpd 21, N-(6-Trifluoromethoxy-benzothiazol-2-yl)-succinamic acid methyl ester]"
0,0,0,0,21,0,"CC(C)(C)OC(=O)CCC(=O)Nc1nc2ccc(OC(F)(F)F)cc2s1 [Cpd 22, N-(6-Trifluoromethoxy-benzothiazol-2-yl)-succinamic acid tert-butyl ester]"
0,10,0,26,4,0,"O=C(CCC(=O)Nc1nc2ccc(OC(F)(F)F)cc2s1)NCc1cccnc1 [Cpd 23, N-Pyridin-3-ylmethyl-N′-(6-trifluoromethoxy-benzothiazol-2-yl)-succinamide]"
0,0,78,0,0,0,"CNCCCCC(=O)Nc1nc2ccc(OC(F)(F)F)cc2s1 [Cpd 25, 5-Methylamino-pentanoic acid (6-trifluoromethoxy-benzothiazol-2-yl)-amide]"
0,0,66,0,19,5,"NCCCCC(=O)Nc1nc2ccc(OC(F)(F)F)cc2s1 [Cpd 26, 5-Amino-pentanoic acid (6-trifluoromethoxy-benzothiazol-2-yl)-amide]"
